Data on two molecules can be found in ChEMBL document CHEMBL4627358, “A hypoxia-activated antibacterial prodrug” (Bioorg Med Chem Lett, 2020).

The subject of one assay is Staphylococcus aureus. Description: Antibacterial activity against Staphylococcus aureus ATCC 49775 assessed as bacterial growth inhibition measured after 16 to 20 hrs by CLSI protocol based broth microdilution method. It is filed as functional.
In another assay the test system is Escherichia coli. Description: Antibacterial activity against Escherichia coli K-12 assessed as bacterial growth inhibition measured after 16 to 20 hrs by CLSI protocol based broth microdilution method. It is filed as functional.

Values after ≈ are worked out from the molar mass of the structure shown.

In the case of `CCCCCCCCN(Cc1c2ccccc2c(Cl)c2ccccc12)C(=O)C(CCCCNC(=O)OCc1ccc([N+](=O)[O-])cc1)NC(=O)OCc1ccc([N+](=O)[O-])cc1` (centres undefined), the minimum inhibitory concentration (MIC) in the assay on Staphylococcus aureus and with Escherichia coli was greater than 256 µg/mL throughout.

Turning to `CCCCCCCCN(Cc1c2ccccc2c(Cl)c2ccccc12)C(=O)C(N)CCCCN` (centres undefined), the MIC was 2 µg/mL (≈ 4.15 µM) with Staphylococcus aureus and 4 µg/mL (≈ 8.3 µM) in the assay on Escherichia coli.
